Assay results: patent publication US20080161232A1, “C5a Receptor Antagonist” (JERINI AG, priority 2005, published 2008)
Positions of bridges follow the written chain, without caps; N, C: chain ends. Non-standard residues stand in square brackets, D forms with d. Residues, ends and D or L forms follow the SMILES beside them. Phe(3,4-Cl2) = N[C@@H](Cc1ccc(Cl)c(Cl)c1)C(=O)O; Phe(3-Cl) = N[C@@H](Cc1cccc(Cl)c1)C(=O)O; Phe(2-Cl) = N[C@@H](Cc1ccccc1Cl)C(=O)O; Phe(4-F) = N[C@@H](Cc1ccc(F)cc1)C(=O)O; Hyp = O=C(O)[C@@H]1C[C@@H](O)CN1; d(hLeu) = CC(C)CC[C@@H](N)C(=O)O; dCha = N[C@H](CC1CCCCC1)C(=O)O; Chg = N[C@H](C(=O)O)C1CCCCC1; hLeu = CC(C)CC[C@H](N)C(=O)O; NMeS = CN[C@@H](CO)C(=O)O; Nle = CCCC[C@H](N)C(=O)O; Orn = NCCC[C@H](N)C(=O)O; Nva = CCC[C@H](N)C(=O)O

target: T1, human C5aR(CD88) (Homo sapiens, UniProt P21730); assay: Determination of the IC50 value in an enzyme release assay (functional assay, antagonistic activity); format: cell-based; settings: antagonistic activity; IC50 group in enzyme release assay, RBL cells expressing human C5aR(CD88); read-out: activity (group)
T1 construct: expressed in transfected cells; host or cells: rat basophilic leukemia cells (RBL)
T1 sequence (P21730 1-350): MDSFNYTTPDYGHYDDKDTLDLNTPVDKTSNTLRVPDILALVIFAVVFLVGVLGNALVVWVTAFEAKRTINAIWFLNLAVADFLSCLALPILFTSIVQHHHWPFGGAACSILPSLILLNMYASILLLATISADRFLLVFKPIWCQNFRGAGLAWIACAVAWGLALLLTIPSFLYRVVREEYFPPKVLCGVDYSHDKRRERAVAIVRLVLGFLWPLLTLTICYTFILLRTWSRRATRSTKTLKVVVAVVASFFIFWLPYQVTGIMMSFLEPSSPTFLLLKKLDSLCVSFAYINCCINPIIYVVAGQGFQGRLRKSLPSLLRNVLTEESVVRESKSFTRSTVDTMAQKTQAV

Row | SMILES | IC50 [nM]
1 | CC(C)CC[C@H]1NC(=O)[C@@H]2C[C@@H](O)CN2C(=O)[C@@H](NC(=O)[C@@H](N)Cc2ccccc2)CCCNC(=O)[C@H](C2CCCCC2)NC(=O)[C@H](Cc2ccc(F)cc2)NC1=O [Compound 362, H-Phe-[Orn-Hyp-hle-Pff-Chg]] (H-F[Orn][Hyp][d(hLeu)][Phe(4-F)][Chg]; lactam 2-C) | 50 to 200
2 | CC(C)CC[C@@H]1NC(=O)[C@H](Cc2ccc(F)cc2)NC(=O)[C@@H](CCC(C)C)NC(=O)[C@@H]2C[C@@H](O)CN2C(=O)[C@@H](NC(=O)[C@@H](N)Cc2ccccc2)CCCNC1=O [Compound 363, H-Phe-[Orn-Hyp-hle-Pff-Hle]] (H-F[Orn][Hyp][d(hLeu)][Phe(4-F)][hLeu]; lactam 2-C) | 50 to 200
3 | CCCC[C@@H]1NC(=O)[C@H](Cc2ccc(F)cc2)NC(=O)[C@@H](CCC(C)C)NC(=O)[C@@H]2C[C@@H](O)CN2C(=O)[C@@H](NC(=O)[C@@H](N)Cc2ccccc2)CCCNC1=O [Compound 365, H-Phe-[Orn-Hyp-hle-Pff-Nle]] (H-F[Orn][Hyp][d(hLeu)][Phe(4-F)][Nle]; lactam 2-C) | 50 to 200
4 | CC(C)CC[C@@H]1NC(=O)[C@H](Cc2c[nH]c3ccccc23)NC(=O)[C@@H](CCC(C)C)NC(=O)[C@@H]2C[C@@H](O)CN2C(=O)[C@@H](NC(=O)[C@@H](N)Cc2ccccc2)CCCNC1=O [Compound 367, H-Phe-[Orn-Hyp-hle-Trp-Hle]] (H-F[Orn][Hyp][d(hLeu)]W[hLeu]; lactam 2-C) | 50 to 200
5 | CCCC[C@@H]1NC(=O)[C@H](Cc2c[nH]c3ccccc23)NC(=O)[C@@H](CCC(C)C)NC(=O)[C@@H]2C[C@@H](O)CN2C(=O)[C@@H](NC(=O)[C@@H](N)Cc2ccccc2)CCCNC1=O [Compound 369, H-Phe-[Orn-Hyp-hle-Trp-Nle]] (H-F[Orn][Hyp][d(hLeu)]W[Nle]; lactam 2-C) | 20 to 50
6 | CCC[C@@H]1NC(=O)[C@H](Cc2c[nH]c3ccccc23)NC(=O)[C@@H](CCC(C)C)NC(=O)[C@@H]2C[C@@H](O)CN2C(=O)[C@@H](NC(=O)[C@@H](N)Cc2ccccc2)CCCNC1=O [Compound 370, H-Phe-[Orn-Hyp-hle-Trp-Nva]] (H-F[Orn][Hyp][d(hLeu)]W[Nva]; lactam 2-C) | 50 to 200
7 | CC(C)CC[C@H]1NC(=O)[C@@H]2C[C@@H](O)CN2C(=O)[C@@H](NC(=O)[C@@H](N)Cc2ccccc2)CCCNC(=O)[C@H](Cc2ccccc2)NC(=O)[C@H](Cc2c[nH]c3ccccc23)NC1=O [Compound 371, H-Phe-[Orn-Hyp-hle-Trp-Phe]] (H-F[Orn][Hyp][d(hLeu)]WF; lactam 2-C) | 20 to 50
8 | CCCC[C@@H]1NC(=O)[C@H](Cc2c[nH]c3ccccc23)NC(=O)[C@@H](CC2CCCCC2)NC(=O)[C@H](CO)N(C)C(=O)[C@@H](NC(=O)[C@@H](N)Cc2ccccc2)CCCNC1=O [Compound 372, H-Phe-[Orn-NMS-cha-Trp-Nle]] (H-F[Orn][NMeS][dCha]W[Nle]; lactam 2-C) | 50 to 200
9 | N[C@@H](Cc1ccccc1)C(=O)N[C@H]1CCCNC(=O)[C@H](Cc2ccccc2)NC(=O)[C@H](Cc2ccc(F)cc2)NC(=O)[C@@H](CC2CCCCC2)NC(=O)[C@@H]2CCCN2C1=O [Compound 375, H-Phe-[Orn-Pro-cha-Pff-Phe]] (H-F[Orn]P[dCha][Phe(4-F)]F; lactam 2-C) | 50 to 200
10 | CCCC[C@@H]1NC(=O)[C@H](Cc2c[nH]c3ccccc23)NC(=O)[C@@H](CC2CCCCC2)NC(=O)[C@@H]2CCCN2C(=O)[C@@H](NC(=O)[C@@H](N)Cc2ccccc2)CCCNC1=O [Compound 376, H-Phe-[Orn-Pro-cha-Trp-Nle]] (H-F[Orn]P[dCha]W[Nle]; lactam 2-C) | 50 to 200
11 | CC(C)CC[C@H]1NC(=O)[C@@H]2CCCN2C(=O)[C@@H](NC(=O)[C@@H](N)Cc2ccccc2)CCCNC(=O)[C@H](Cc2ccccc2)NC(=O)[C@H](Cc2cccc(Cl)c2)NC1=O [Compound 377, H-Phe-[Orn-Pro-hle-Mcf-Phe]] (H-F[Orn]P[d(hLeu)][Phe(3-Cl)]F; lactam 2-C) | 20 to 50
12 | CC(C)CC[C@H]1NC(=O)[C@@H]2CCCN2C(=O)[C@@H](NC(=O)[C@@H](N)Cc2ccccc2)CCCNC(=O)[C@H](Cc2ccccc2)NC(=O)[C@H](Cc2ccccc2Cl)NC1=O [Compound 378, H-Phe-[Orn-Pro-hle-Ocf-Phe]] (H-F[Orn]P[d(hLeu)][Phe(2-Cl)]F; lactam 2-C) | 50 to 200
13 | CC(C)CC[C@H]1NC(=O)[C@@H]2CCCN2C(=O)[C@@H](NC(=O)[C@@H](N)Cc2ccccc2)CCCNC(=O)[C@H](Cc2ccccc2)NC(=O)[C@H](Cc2ccc(F)cc2)NC1=O [Compound 380, H-Phe-[Orn-Pro-hle-Pff-Phe]] (H-F[Orn]P[d(hLeu)][Phe(4-F)]F; lactam 2-C) | 20 to 50
14 | N[C@@H](Cc1ccccc1)C(=O)N[C@H]1CCCNC(=O)[C@H](Cc2ccccc2)NC(=O)[C@H](Cc2c[nH]c3ccccc23)NC(=O)[C@@H](CC2CCCCC2)NC(=O)[C@H](CO)NC1=O [Compound 383, H-Phe-[Orn-Ser-cha-Trp-Phe]] (H-F[Orn]S[dCha]WF; lactam 2-C) | 20 to 50

Continued, values first:

Row | IC50 [nM] | SMILES
15 | 50 to 200 | CC(C)CC[C@H]1NC(=O)[C@@H]2C[C@@H](O)CN2C(=O)[C@@H](NC(=O)[C@@H](N)Cc2ccccc2)CCCNC(=O)[C@H](CC(C)C)NC(=O)[C@H](Cc2ccc(F)cc2)NC1=O [Compound 364, H-Phe-[Orn-Hyp-hle-Pff-Leu]] (H-F[Orn][Hyp][d(hLeu)][Phe(4-F)]L; lactam 2-C)
16 | 50 to 200 | CC(C)CC[C@H]1NC(=O)[C@@H]2C[C@@H](O)CN2C(=O)[C@@H](NC(=O)[C@@H](N)Cc2ccccc2)CCCNC(=O)[C@H](Cc2ccccc2)NC(=O)[C@H](Cc2ccc(F)cc2)NC1=O [Compound 366, H-Phe-[Orn-Hyp-hle-Pff-Phe]] (H-F[Orn][Hyp][d(hLeu)][Phe(4-F)]F; lactam 2-C)
17 | 20 to 50 | CC(C)CC[C@H]1NC(=O)[C@@H]2C[C@@H](O)CN2C(=O)[C@@H](NC(=O)[C@@H](N)Cc2ccccc2)CCCNC(=O)[C@H](CC(C)C)NC(=O)[C@H](Cc2c[nH]c3ccccc23)NC1=O [Compound 368, H-Phe-[Orn-Hyp-hle-Trp-Leu]] (H-F[Orn][Hyp][d(hLeu)]WL; lactam 2-C)
18 | 50 to 200 | CC(C)CC[C@H]1NC(=O)[C@H](CO)N(C)C(=O)[C@@H](NC(=O)[C@@H](N)Cc2ccccc2)CCCNC(=O)[C@H](Cc2ccccc2)NC(=O)[C@H](Cc2ccc(F)cc2)NC1=O [Compound 373, H-Phe-[Orn-NMS-hle-Pff-Phe]] (H-F[Orn][NMeS][d(hLeu)][Phe(4-F)]F; lactam 2-C)
19 | 50 to 200 | CCCC[C@@H]1NC(=O)[C@H](Cc2ccc(F)cc2)NC(=O)[C@@H](CC2CCCCC2)NC(=O)[C@@H]2CCCN2C(=O)[C@@H](NC(=O)[C@@H](N)Cc2ccccc2)CCCNC1=O [Compound 374, H-Phe-[Orn-Pro-cha-Pff-Nle]] (H-F[Orn]P[dCha][Phe(4-F)][Nle]; lactam 2-C)
20 | 50 to 200 | CCCC[C@@H]1NC(=O)[C@H](Cc2ccc(F)cc2)NC(=O)[C@@H](CCC(C)C)NC(=O)[C@@H]2CCCN2C(=O)[C@@H](NC(=O)[C@@H](N)Cc2ccccc2)CCCNC1=O [Compound 379, H-Phe-[Orn-Pro-hle-Pff-Nle]] (H-F[Orn]P[d(hLeu)][Phe(4-F)][Nle]; lactam 2-C)
21 | 20 to 50 | CCCC[C@@H]1NC(=O)[C@H](Cc2c[nH]c3ccccc23)NC(=O)[C@@H](CCC(C)C)NC(=O)[C@@H]2CCCN2C(=O)[C@@H](NC(=O)[C@@H](N)Cc2ccccc2)CCCNC1=O [Compound 381, H-Phe-[Orn-Pro-hle-Trp-Nle]] (H-F[Orn]P[d(hLeu)]W[Nle]; lactam 2-C)
22 | 20 to 50 | CCCC[C@@H]1NC(=O)[C@H](Cc2c[nH]c3ccccc23)NC(=O)[C@@H](CC2CCCCC2)NC(=O)[C@H](CO)NC(=O)[C@@H](NC(=O)[C@@H](N)Cc2ccccc2)CCCNC1=O [Compound 382, H-Phe-[Orn-Ser-cha-Trp-Nle]] (H-F[Orn]S[dCha]W[Nle]; lactam 2-C)
23 | 50 to 200 | CCCC[C@@H]1NC(=O)[C@H](Cc2ccc(Cl)c(Cl)c2)NC(=O)[C@@H](CCC(C)C)NC(=O)[C@H](CO)NC(=O)[C@@H](NC(=O)[C@@H](N)Cc2ccccc2)CCCNC1=O [Compound 384, H-Phe-[Orn-Ser-hle-Eaa-Nle]] (H-F[Orn]S[d(hLeu)][Phe(3,4-Cl2)][Nle]; lactam 2-C)
24 | 50 to 200 | CC(C)CC[C@H]1NC(=O)[C@H](CO)NC(=O)[C@@H](NC(=O)[C@@H](N)Cc2ccccc2)CCCNC(=O)[C@H](CC(C)C)NC(=O)[C@H](Cc2cccc(Cl)c2)NC1=O [Compound 385, H-Phe-[Orn-Ser-hle-Mcf-Leu]] (H-F[Orn]S[d(hLeu)][Phe(3-Cl)]L; lactam 2-C)
25 | 50 to 200 | CCCC[C@@H]1NC(=O)[C@H](Cc2ccccc2Cl)NC(=O)[C@@H](CCC(C)C)NC(=O)[C@H](CO)NC(=O)[C@@H](NC(=O)[C@@H](N)Cc2ccccc2)CCCNC1=O [Compound 386, H-Phe-[Orn-Ser-hle-Ocf-Nle]] (H-F[Orn]S[d(hLeu)][Phe(2-Cl)][Nle]; lactam 2-C)
26 | 50 to 200 | CC(C)CC[C@H]1NC(=O)[C@H](CO)NC(=O)[C@@H](NC(=O)[C@@H](N)Cc2ccccc2)CCCNC(=O)[C@H](CC(C)C)NC(=O)[C@H](Cc2ccc(F)cc2)NC1=O [Compound 387, H-Phe-[Orn-Ser-hle-Pff-Leu]] (H-F[Orn]S[d(hLeu)][Phe(4-F)]L; lactam 2-C)
27 | 20 to 50 | CCCC[C@@H]1NC(=O)[C@H](Cc2ccc(F)cc2)NC(=O)[C@@H](CCC(C)C)NC(=O)[C@H](CO)NC(=O)[C@@H](NC(=O)[C@@H](N)Cc2ccccc2)CCCNC1=O [Compound 388, H-Phe-[Orn-Ser-hle-Pff-Nle]] (H-F[Orn]S[d(hLeu)][Phe(4-F)][Nle]; lactam 2-C)
